Data set [1] addresses T1, PBP B (Mycobacterium abscessus, UniProt B1MP31). In words: Steady-state kinetics with nitrocefin (Ki,app). Format: biochemical. As to conditions: for Ratio of fCss,avg to Ki,app, PBP B: in parentheses in Table 3. As to the method:
(§1) Steady-state kinetic studies were conducted using purified LDTs and PBPs (LDT1-5, PBP B, PBP-lipo, and DDC) as previously described ([20]). The assays were performed using a BioTek Synergy2 multimode reader in conjunction with Gen5 analysis software. […] To determine reaction velocities, a 0.25 cm path length was employed. The steady-state kinetic parameters (Vmax, kcat, and Km) were obtained by fitting the data to the Henri-Michaelis-Menten equation using a nonlinear least-squares fit in Origin 8.1 software (OriginLab, Northampton, MA). The reaction rate (v) at a given substrate concentration ([S]) was calculated according to the following equations: […]
(§2) Changes in absorbance at 482 nm were measured over a period of 0–30 min for each concentration of β-lactams and BLIs. Data were linearized using a Dixon plot, plotting the inverse changes in absorbance (1/ΔA) against the concentrations of β-lactams and BLIs. The observed Ki,app was determined directly from the Dixon plot, and these values were corrected for substrate concentration and affinity for the LDT using the following equation:
(§3) Ki,app=observed Ki,app/1+[NCF]/Km NCF

Data set [2] is described as follows: Predicted average unbound steady-state plasma concentration (fCss,avg) at clinically relevant doses. Also on record: species or system human. To be noted: median unbound average steady-state plasma concentration, continuous infusion; daily dose DUR 4,000, AVI 1,500, IPM 4,000, CFT 1,800, AMX 1,500, SULO 1,000, CXM 1,500, SUL 4,000, TBP 1,800 mg.
In the next data set the target is T2, PBP-lipo (Mycobacteroides abscessus, UniProt B1MDC3).
T2 construct: made in house; host or cells: Escherichia coli BL21 (DE3)
T2 sequence (B1MDC3 entry or part of it): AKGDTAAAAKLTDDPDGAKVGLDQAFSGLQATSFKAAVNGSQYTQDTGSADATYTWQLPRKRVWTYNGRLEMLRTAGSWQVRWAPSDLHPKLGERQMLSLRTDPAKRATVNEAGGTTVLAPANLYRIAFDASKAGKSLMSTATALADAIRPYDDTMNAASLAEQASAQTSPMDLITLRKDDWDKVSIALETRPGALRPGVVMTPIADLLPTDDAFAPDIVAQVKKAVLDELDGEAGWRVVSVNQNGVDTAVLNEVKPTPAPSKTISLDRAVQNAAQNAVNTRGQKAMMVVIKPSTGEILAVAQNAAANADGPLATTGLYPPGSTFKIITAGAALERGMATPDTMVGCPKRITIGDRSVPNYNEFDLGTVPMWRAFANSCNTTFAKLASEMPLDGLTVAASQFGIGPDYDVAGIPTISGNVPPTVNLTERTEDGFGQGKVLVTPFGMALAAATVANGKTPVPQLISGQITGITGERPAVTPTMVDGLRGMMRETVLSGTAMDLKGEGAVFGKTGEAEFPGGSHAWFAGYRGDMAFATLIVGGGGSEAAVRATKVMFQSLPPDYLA
The experiment in a line: Bocillin-FL binding assay. As to conditions: 2 h incubation, 1:10 molar ratio. How it is done: To analyze the binding of PBP-lipo with β-lactams or BLIs, purified PBP-lipo (4 µg) was incubated with β-lactams or BLIs at a 1:10 molar ratio in a buffer containing 10 mM sodium phosphate (pH 7.4) and 150 mM NaCl. The incubation was carried out for 2 h at room temperature. After the initial incubation, 1 µM Bocillin FL was added to the reaction mixture. The incubation was continued for an additional 3–4 h at 37°C. After incubation, the samples were boiled to denature the proteins. The samples were then subjected to SDS-PAGE. The PBP-lipo:Bocillin complexes were visualized by fluorescence analysis at a wavelength of 488 nm using an Azure 300 gel imaging system. The intensity of the PBP-lipo:Bocillin complex bands was analyzed using GelAnalyzer software. The intensity of the band for PBP-lipo alone (without β-lactams) was set to 1 as the highest intensity. The intensity of each band for PBP-lipo incubated with β-lactams was then normalized by dividing by the intensity of the band for PBP-lipo alone.

Data set [3] has as its target T1, PBP B. The experiment in a line: Mass spectrometry of covalent adduct formation. In kind it is binding. To be noted: protein:drug 1:20, 2 h; mass accuracy ±5 Da; (−) = no change. How it is done:
Truncated sequences of LDT1-5, DDC, PBP B, and PBP-lipo (Δ1–41) were generated by Celtek Biosciences and cloned into the pET28(a) + vector with a tobacco etch virus (TEV) protease cleavage site before the start codon. Clones were transformed into Escherichia coli BL21 (DE3) and grown to an OD600 of 0.6–0.8. […] Cell pellets were collected and stored at −20°C overnight, then resuspended in a buffer containing 50 mM Tris (pH 8.0), 400 mM sodium chloride, and 1 mM Tris (2-carboxyethyl) phosphine hydrochloride (TCEP), followed by sonication and centrifugation. The supernatant was purified using a His Prep FF 16/10 column (GE Healthcare) and eluted with 500 mM imidazole. Eluted protein was dialyzed overnight at 4°C in a buffer with 50 mM Tris (pH 8.0), 150 mM sodium chloride, and 0.5 mM TCEP in the presence of His-tagged TEV protease. To remove the His tag, the mixture was passed over the His Prep FF 16/10 column again.
The purified proteins listed above were incubated at room temperature with β-lactams or BLIs at a molar ratio of 1:20 for 2 h. The reactions were then quenched with acetonitrile and diluted to 1 mL with 0.1% formic acid in water. Samples were analyzed using a quadrupole time-of-flight (Q-TOF) Waters Synapt-G2-Si electrospray ionization mass spectrometer (ESI-MS) and a Waters Acquity H class ultra-performance liquid chromatography (UPLC) system, equipped with a BEH C18 1.7 µm column (2.1 × 50 mm). The MS was tuned with the following settings: capillary voltage set at 3 kV, sampling cone at 35 V, source offset at 35, source temperature of 100°C, desolvation temperature of 500°C, cone gas flow rate at 100 L/h, desolvation gas flow rate at 800 L/h, and nebulizer set at 6.0. The mobile phases consisted of 0.1% formic acid in water and 0.1% formic acid in 100% acetonitrile, with gradient elution from 10% to 90% of […] over 11 min. The system’s mass accuracy was ±5 Da.

For the next data set, the system named is Mab ATCC 19977 strain. The experiment in a line: MIC testing (CLSI, Middlebrook 7H9 broth). In kind it is cell-based, Mycobacterium abscessus. As to conditions: for MIC: Mycobacteroides abscessus, ATCC19977, Mab ATCC 19977, no BLI added, 30°C, 48 h, read-out: MIC, alone; for MIC, + DUR + SUL (1:1): durlobactam, sulbactam and test β-lactam all at the same concentration; for MIC, + AVI (4 mg/L): fixed avibactam 4 mg/L; for MIC, + DUR + SUL (1 mg/L): fixed durlobactam 1 mg/L + sulbactam 1 mg/L.

The subject of data set [4] is Mycobacterium abscessus ATCC 19977 strain. In words: Morphological changes by flow cytometry and confocal microscopy. In kind it is cell-based. To be noted: clinically relevant unbound concentrations (fCss,ave), 24 h. As to the method:
Flow cytometry was employed to evaluate morphological changes in individual bacterial cells following PBP-lipo inactivation after 24 h of β-lactam treatment. The bacterial cells were stained using the BacLight kit L7012 (Thermo Fisher Scientific, Waltham, MA), containing SYTO 9 and propidium iodide (PI). Analysis was performed using a CytoFLEX flow cytometer (Beckman Coulter, CA), with data processed using CytExpert software.
Bacterial morphological changes resulting from PBP-lipo inactivation were investigated using an ImageXpress Micro Confocal Microscope (Molecular Devices, CA). The staining procedures applied to the samples mirrored those used for flow cytometry. Stained bacterial cells were placed in optically clear flat-bottom 96-well plates, and observations were conducted at 60× magnification. Cell length measurements were obtained through automated image analysis using MetaXpress 6 software.

The next data set addresses DDC (Mycobacteroides abscessus, UniProt B1MDJ1). In words: Steady-state kinetics with nitrocefin (Ki,app). As to conditions: in parentheses in Table 3. In kind it is biochemical. How it is done:
as §1, §2, §3

[5] abbreviates: nitrocefin at 5 × Km, read-out: Ki,app PBP B (converted).
Setting [6] is: read-out: Ki,app PBP B (converted).

Data on seven compounds can be found in article PMC11823594, “Durlobactam in combination with β-lactams to combat Mycobacterium abscessus” (Antimicrobial Agents and Chemotherapy, 2024).

Values after ≈ are worked out from the molar mass of the structure shown. Read-outs that look alike come from different tables or passages of the source.
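Wherever Ratio of fCss,avg to Ki,app, DDC is given: Parenthesised value is the fCss,avg to Ki,app ratio where above 1 means target likely hit.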
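Wherever Ratio of fCss,avg to Ki,app, PBP B is given: Parenthesised value is the fCss,avg to Ki,app ratio where above 1 means target likely hit.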

T1 sequence (B1MP31 entry or part of it): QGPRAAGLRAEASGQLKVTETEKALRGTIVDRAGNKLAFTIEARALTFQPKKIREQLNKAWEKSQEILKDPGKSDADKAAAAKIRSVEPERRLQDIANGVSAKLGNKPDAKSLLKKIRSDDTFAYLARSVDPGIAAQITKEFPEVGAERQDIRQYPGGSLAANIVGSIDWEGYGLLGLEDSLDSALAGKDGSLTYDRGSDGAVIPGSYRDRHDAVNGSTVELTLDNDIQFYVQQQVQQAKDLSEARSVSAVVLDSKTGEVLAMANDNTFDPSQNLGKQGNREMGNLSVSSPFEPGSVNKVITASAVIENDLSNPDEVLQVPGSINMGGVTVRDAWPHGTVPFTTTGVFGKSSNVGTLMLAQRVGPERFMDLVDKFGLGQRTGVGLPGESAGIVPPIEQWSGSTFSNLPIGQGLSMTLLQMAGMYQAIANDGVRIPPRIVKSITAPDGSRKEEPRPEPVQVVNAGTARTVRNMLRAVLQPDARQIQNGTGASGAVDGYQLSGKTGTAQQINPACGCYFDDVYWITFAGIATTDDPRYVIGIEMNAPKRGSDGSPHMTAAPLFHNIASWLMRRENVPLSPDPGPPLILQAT
DDC, sequence (B1MDJ1 entry or part of it): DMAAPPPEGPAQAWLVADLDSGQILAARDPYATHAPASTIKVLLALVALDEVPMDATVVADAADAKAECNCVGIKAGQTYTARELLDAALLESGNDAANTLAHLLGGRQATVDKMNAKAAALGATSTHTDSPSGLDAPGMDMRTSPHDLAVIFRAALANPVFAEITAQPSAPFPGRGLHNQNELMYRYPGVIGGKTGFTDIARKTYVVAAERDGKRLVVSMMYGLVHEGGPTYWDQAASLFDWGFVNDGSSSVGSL

Consider `CC1(C)S[C@@H]2[C@H](NC(=O)[C@H](N)c3ccc(O)cc3)C(=O)N2[C@H]1C(=O)O` [Amoxicillin, amoxicillin], for which the Ki at PBP B [1] was 7.39 µM. In data set [2], the “fCss,avg” value is 6 mg/L. For the same compound, the “Binding to PBP-lipo (Bocillin-FL competition)” value (“Binding to PBP-lipo” below) at PBP-lipo was “demonstrated binding to PBP-lipo”. Moreover, the “Observed MW (+ change in mw), PBP B (62,915)” value (from here on “Observed MW (+ change in mw)”) at PBP B [3] is 63,280 (+365) Da. Also, in the data set on Mab ATCC 19977 strain, the minimal inhibitory concentration (MIC) worked out at 128 mg/L (≈ 350 µM); the “MIC, + DUR + SUL (1:1)” value is 1 mg/L; the “MIC, + AVI (4 mg/L)” value is 32 mg/L; the “MIC, + DUR + SUL (1 mg/L)” value came out at 1 mg/L. Also, in data set [4], the “Morphological change of Mab cells” value is on record as “does not induce any morphological changes”.
Turning to `NC(=O)[C@@H]1CC[C@@H]2CN1C(=O)N2OS(=O)(=O)O` [Avibactam, avibactam], the “Ratio of fCss,avg to Ki,app, DDC” value on DDC is on record as 0.1. Further, on PBP B [1], the “Ratio of fCss,avg to Ki,app, PBP B” value is listed as 0.6. Moreover, on PBP B [1] (setting [5]), the Ki is 33.9 µM. Further, the “fCss,avg” value in data set [2] is 5 mg/L. Besides, at PBP-lipo, the “Binding to PBP-lipo” value is on record as “demonstrated binding to PBP-lipo”. In addition, at PBP B [3], the “Observed MW (+ change in mw)” value is given as 63,180 (+265) Da. Further, the MIC in the data set on Mab ATCC 19977 strain was greater than 128 mg/L. For the same compound, in data set [4], the “Morphological change of Mab cells” value was “did not induce noticeable morphological changes”.
With `CO/N=C(\C(=O)N[C@@H]1C(=O)N2C(C(=O)O)=C(COC(N)=O)CS[C@H]12)c1ccco1` [Cefuroxime, cefuroxime], the “Ratio of fCss,avg to Ki,app, DDC” value at DDC is 0.05 (240). Moreover, at PBP B [1], the “Ratio of fCss,avg to Ki,app, PBP B” value is 3 (4). For the same compound, the Ki at PBP B [1] (setting [6]) is 7.07 µM. Also, the “fCss,avg” value in data set [2] is 12 mg/L. For the same compound, the “Binding to PBP-lipo” value at PBP-lipo is listed as “demonstrated binding to PBP-lipo”. Further, the “Observed MW (+ change in mw)” value at PBP B [3] is given as 63,279 (+364) Da. For the same compound, in the data set with Mab ATCC 19977 strain, the MIC came out at 4 mg/L (≈ 9.43 µM); the “MIC, + DUR + SUL (1:1)” value came to 1 mg/L; the “MIC, + AVI (4 mg/L)” value is 4 mg/L; the “MIC, + DUR + SUL (1 mg/L)” value was 2 mg/L. For the same compound, the “Morphological change of Mab cells” value in data set [4] is recorded as “did not induce noticeable morphological changes”.
For `CC1=C[C@@H]2CN(C(=O)N2OS(=O)(=O)O)[C@@H]1C(N)=O` [Durlobactam, durlobactam], the “Ratio of fCss,avg to Ki,app, DDC” value at DDC is listed as 1.6. The “Ratio of fCss,avg to Ki,app, PBP B” value at PBP B [1] came to 1. Besides, the Ki on PBP B [1] (setting [5]) is 57.7 µM. In addition, the “fCss,avg” value in data set [2] is given as 16 mg/L. For the same compound, the “Binding to PBP-lipo” value at PBP-lipo is listed as “demonstrated binding to PBP-lipo”. Also, the “Observed MW (+ change in mw)” value at PBP B [3] is on record as 63192 (+277) Da. The “Morphological change of Mab cells” value in data set [4] is “filamentous shapes with an elongated cell length”.
With `C[C@@H](O)[C@H]1C(=O)N2C(C(=O)O)=C(SCCN=CN)C[C@H]12` [Imipenem, imipenem], the “Ratio of fCss,avg to Ki,app, DDC” value at DDC is 1.3 (9). Also, at PBP B [1], the “Ratio of fCss,avg to Ki,app, PBP B” value is given as 0.4 (27). Moreover, the Ki at PBP B [1] (setting [6]) is 1.34 µM. Also, the “fCss,avg” value in data set [2] is 12 mg/L. In addition, on PBP-lipo, the “Binding to PBP-lipo” value is reported as “demonstrated binding to PBP-lipo”. Also, the “Observed MW (+ change in mw)” value at PBP B [3] is given as 63,215 (+300) Da. In the data set with Mab ATCC 19977 strain, the minimal inhibitory concentration (MIC) was found to be 8 mg/L (≈ 26.7 µM); the “MIC, + DUR + SUL (1:1)” value stood at 2 mg/L; the “MIC, + AVI (4 mg/L)” value is 4 mg/L; the “MIC, + DUR + SUL (1 mg/L)” value was 4 mg/L. Moreover, the “Morphological change of Mab cells” value in data set [4] was “filamentous shapes with an elongated cell length”.
Turning to `C[C@@H](O)[C@H]1C(=O)N2C(C(=O)O)=C(S[C@H]3CC[S@@+]([O-])C3)S[C@H]12` [Sulopenem, sulopenem], the “Ratio of fCss,avg to Ki,app, DDC” value at DDC is recorded as 0.1. At PBP B [1], the “Ratio of fCss,avg to Ki,app, PBP B” value is 0.7. The Ki on PBP B [1] (setting [5]) is 8.3 µM. Also, the “fCss,avg” value in data set [2] is listed as 2 mg/L. In addition, on PBP-lipo, the “Binding to PBP-lipo” value is given as “demonstrated binding to PBP-lipo”. Moreover, at PBP B [3], the “Observed MW (+ change in mw)” value was 63,264 (+349) Da. In addition, in the data set on Mab ATCC 19977 strain, the MIC turned out to be 1 mg/L (≈ 2.86 µM); the “MIC, + DUR + SUL (1:1)” value was 0.25 mg/L; the “MIC, + AVI (4 mg/L)” value came to 0.5 mg/L; the “MIC, + DUR + SUL (1 mg/L)” value is 1 mg/L. Also, the “Morphological change of Mab cells” value in data set [4] is recorded as “filamentous shapes with an elongated cell length”.
`C[C@@H](O)[C@H]1C(=O)N2C(C(=O)O)=C(SC3CN(C4=NCCS4)C3)[C@H](C)[C@H]12` [Tebipenem, tebipenem]: the “Ratio of fCss,avg to Ki,app, DDC” value on DDC came to 0.01. The “Ratio of fCss,avg to Ki,app, PBP B” value at PBP B [1] was determined as 243. Moreover, at PBP B [1] (setting [5]), the Ki was 0.0183 µM. The “fCss,avg” value in data set [2] is 1.7 mg/L. Moreover, in the data set with Mab ATCC 19977 strain, the minimal inhibitory concentration (MIC) stood at 8 mg/L (≈ 20.9 µM); the “MIC, + DUR + SUL (1:1)” value was found to be 1 mg/L; the “MIC, + AVI (4 mg/L)” value was 2 mg/L; the “MIC, + DUR + SUL (1 mg/L)” value was 1 mg/L.
